In ChEMBL document CHEMBL4842392, “Targeting KRAS Mutant Protein Inhibitor for Potential Treatment in Cancer” (ACS Med Chem Lett, 2021) one finds IC50, F and bioavailability data, which are given here for 8 compounds.

Series [1] addresses T1, GTPase KRas (Homo sapiens, UniProt P01116, G12C). The series can be described thus: Inhibition of GDP-loaded His-tagged KRAS G12C mutant (2 to 182 residues) (unknown origin) assessed as inhibition of SOS1-catalyzed nucleotide exchange preincubated for 1 hr followed by SOS1 addition measured after 1 hr by TR-FRET assay. Background: TR-FRET usually uses a lanthanide donor and a delayed reading to cut background.

For series [2], the target named is T1, GTPase KRas. The series can be described thus: Inhibition of KRAS G12C mutant in human NCI-H358 cells assessed as reduction in ERK phosphorylation incubated for 2 hrs by HTRF assay. In kind it is cell-based.
The subject of another series is NCI-H358. The series can be described thus: Antiproliferative activity against human NCI-H358 cells assessed as inhibition of cell proliferation incubated for 6 days by CCK8 assay. It is filed as functional, cell-based.
A short description of series [3]: Oral bioavailability in Beagle dog at 10 mg/kg measured up to 24 hrs by LC-MS analysis. It is filed as ADME, organism-based, Canis lupus familiaris. Conditions: in vivo.

The structures appear in SMILES notation. “And” between values parts separate entries of the source, which are not always exact repeats. Equal values may be shown once.

In the case of `C=CC(=O)N1CCN(c2c(C#N)c(=O)n(-c3c(C(C)C)ncnc3C(C)C)c3nc(-c4c(N)c(Cl)cc(Cl)c4F)c(Cl)cc23)CC1`, the IC50 – broadly, the midpoint of a concentration-inhibition curve – at GTPase KRas [1] was determined as 4.74 nM; at GTPase KRas [2], 18.5 nM; with NCI-H358 (Homo sapiens, NCI-H358, 144 h), 32 nM.
Take `C=CC(=O)N1CCN(c2c(C#N)c(=O)n(-c3c(C)ccnc3C(C)C)c3nc(-c4c(N)c(Cl)cc(Cl)c4F)c(Cl)cc23)C[C@@H]1CC#N`: the values for the IC50 at GTPase KRas [1] and at GTPase KRas [2] were 6.66 nM and 12.3 nM, respectively.
Consider `C=CC(=O)N1CCN(c2c(C#N)c(=O)n(-c3c(C)ccnc3C(C)C)c3nc(-c4c(N)c(Cl)cc(Cl)c4F)c(Cl)cc23)CC1`, for which the IC50 at GTPase KRas [1] is 1.95 nM and 1.54 nM; on GTPase KRas [2], 10.4 nM and 11.7 nM; in the series on NCI-H358 (Homo sapiens, NCI-H358, 144 h), 27.6 nM; with NCI-H358 (nci-h358), 14.5 nM. Also, the F in series [3] (10 mg/kg, 24 h) was 98.5% and 63.1%.
Consider `C=CC(=O)N1CCN(c2c(C#N)c(=O)n(-c3c(C(C)C)ncnc3C(C)C)c3nc(-c4c(N)cccc4F)c(Cl)cc23)CC1`, for which the IC50 on GTPase KRas [2] was 20.1 nM.
`C=CC(=O)N1CCN(c2c(C#N)c(=O)n(-c3c(C)ccnc3C(C)C)c3nc(-c4c(N)c(Cl)cc(Cl)c4F)c(Cl)cc23)CC1CC#N` (centres undefined): the IC50 on GTPase KRas [1] is 5.19 nM; on GTPase KRas [2], 14.9 nM; in the series with NCI-H358 (Homo sapiens, NCI-H358, 144 h), 35.6 nM.
`C=CC(=O)N1CCN(c2c(C#N)c(=O)n(-c3c(C)ccnc3C(C)C)c3nc(-c4c(N)c(Cl)cc(Cl)c4F)c(Cl)cc23)C[C@H]1C`: the IC50 at GTPase KRas [1] amounted to 2.54 nM; on GTPase KRas [2], 28.8 nM; in the series on NCI-H358 (Homo sapiens, NCI-H358, 144 h), 25.4 nM. Also, in series [3] (beagle), the bioavailability (as a rule, the share of a dose that reaches the circulation, judged against a reference dose that is usually intravenous) is 70.3%.
As to `C=CC(=O)N1[C@H](C)CN(c2c(C#N)c(=O)n(-c3c(C)ccnc3C(C)C)c3nc(-c4c(N)c(Cl)cc(Cl)c4F)c(Cl)cc23)C[C@@H]1C`, the IC50 was found to be 2.83 nM on GTPase KRas [1]; 38.1 nM at GTPase KRas [2]; 17.5 nM in the series with NCI-H358 (Homo sapiens, NCI-H358, 144 h).
Take `C=CC(=O)N1CCN(c2c(C#N)c(=O)n(-c3c(C)ccnc3C(C)C)c3nc(-c4ccccc4F)c(Cl)cc23)CC1`: the IC50 was 4.4 nM on GTPase KRas [1]; 29.9 nM at GTPase KRas [2]; 52.1 nM in the series on NCI-H358 (Homo sapiens, NCI-H358, 144 h).
